Experimental data: patent US10874685B2, “Pancreatic cancer therapy and diagnosis” (Deutsches Krebsforschungszentrum Stiftung des Öffentlichen …, priority 2014, dated 2020)
“Also recorded” adds a separate entry of the source.

Key:
[1] = tested on: PANC-1, MIAPaCa-2 and AsPC-1 cell lines; assay: PDAC cell line growth curves under combination therapy; type: cell-based, human; details: over time
From the text: FIGS. 11A and 11B show PDAC cell line growth curves following combination therapy with DRD2 antagonists, 2-deoxy-D-glucose, and atorvastatin. Percentage cell growth shown on the y-axis following treatment with control (blue line), pimozide (Pim, gray line), atorvastatin and 2-deoxy-D-glucose (ATR+2-DG, red line) and combination of Pim and ATR+2-DG (green line) over time in PANC-1 (top), MIAPaCa-2 (middle) and AsPC-1 (bottom) cell lines (FIG. 11A). Haloperidol (Hal, gray line) is used as the DRD2 antagonist for use alone or in combination with ATR+2-DG as described in A (FIG. 11B). Dosage are indicated for each cell line.
PDAC cell proliferation was measured during pharmacological inhibition of DRD2 alone and in combination with blockade of glycolysis and cholesterol synthesis. To suppress glycolysis, 2-DG, a glucose analog which is a competitor inhibitor of glucose metabolism, was used. To inhibit cholesterol synthesis, atorvastatin (ATR), a competitive inhibitor of 3-hydroxy-3-methylglutaryl-coenzyme A (HMG-CoA) reductase in the cholesterol biosynthesis pathway was used.

MIAPaCa-2 xenograft = assay: Combination therapy in NSG mice, MIAPaCa-2 xenograft model; type: in vivo; details: i.p. 16 days; pimozide 10 mg/kg daily; gemcitabine 20 mg/kg every 4 days
From the text: Tumor volumes normalized to initial measurement shown in the y-axis every four days following treatment with either vehicle (gray line), the chemotherapeutic gemcitabine (green line), a combination therapy of 2-deoxy-D-glucose, atorvastatin and pimozide (2DG+ATR+Pim, redline), or a combination therapy of 2DG+ATR+Pim and gemcitabine (2DG+ATR+Pim+Gem, red dashed line) (FIG. 12A). […] Tumor weight (FIG. 12C) and volume of samples (FIG. 12D) harvested following treatment with, from left to right, control (Vehicle), 2DG+ATR, Pim alone, Pim+2DG+ATR, Gem alone, 2DG+ATR+Gem, Pim+Gem, or Pim+2DG+ATR+Gem.
NOD severe combined immunodeficiency gamma (NSG) mice were subcutaneously injected in the right flank with five million MIAPaCa-2 cells. Once tumors were detectable (200 mm^3), mice were randomized into 8 groups (5 in each group) and treated through intraperitoneal injection as indicated for 16 days. All drugs were given every day whereas gemcitabine was given every 4 days, alone or in combination. Experiment was terminated when control animals became moribund. The growth of tumors was measured every 4 days. Tumors were harvested and photographed. Tumor weights and volumes were measured.
The efficacy of the combined treatment approach was investigated using a MIAPaCa-2 xenograft model of pancreatic cancer.

[2] = tested on: MIAPaCa-2, PANC-1 and AsPC-1 cells; assay: Free cholesterol measurement (Filipin staining) in PDAC cell lines; type: cell-based, human; details: 10 μM, 18 hours; vs DMSO
From the text: Measurement of 2-deoxy-D-glucose uptake shown on the y-axis relative to control by PDAC cell lines (MIAPaCa2, left; PANC-1, middle; AsPC1, right) treated with DMSO (C), pimozide (P) or haloperidol (H) (FIG. 10A). Abundance of free cholesterol, as measured by staining with filipin, after treatment with haloperidol (H) or pimozide (P) in PDAC cell lines (MIAPaCa2, left; PANC-1, middle; AsPC1, right) (FIG. 10B top). Representative micrographs of filipin-labelled cholesterol. PDAC (MIAPaCa2, top; PANC-1, middle; AsPC1, bottom) cells were seeded for 24 hours and treated with 10 μM haloperidol (H) or pimozide (P) or DMSO for 18 hours (FIG. 10B bottom). Red-fluorescence represents propidium iodide (PI)-stained nuclei and blue-fluorescence represents filipin-stained cholesterol. mRNA levels of genes relative to R-actin shown on the y-axis involved in cholesterol biosynthesis (from left to right: SREBP1, SREBP2, INSIG1, HMGCR, LDLR) measured by qRT-PCR 18 hours post-treatment with DMSO (C), haloperidol (H) or pimozide (P) in three PDAC cell lines (MIAPaCa2, top; PANC-1, middle; AsPC1, bottom) (FIG. 10C).
Cancer cells were seeded for 24 hours and treated with pimozide, haloperidol or DMSO for 18 hours. The cells were fixed with paraformaldehyde, stained with Filipin™ and propidium iodide (PI), and photographed. Filipin™ is a fluorescent polyene antibiotic that binds to free cholesterol. […]

MIAPaCa-2 cells = assay: Transwell (Boyden chamber) migration assay, MIAPaCa-2; type: cell-based, human; details: MIAPaCa-2, Boyden chamber, increasing doses, 4 h
Description: MIAPaCa-2 cells were platted on transwells and exposed to increasing doses of Pimozide for 4 h (FIG. 7A). Migrated cells were measured and normalized to their controls. Values are the mean+/−SD of four replicate.
This assay for confirmation of cell migration was performed using 96-well Costar Transwell chambers with 8.0 μm pore polycarbonate membranes (Corning Inc., Corning, N.Y.). Cell culture inserts transwells were placed in wells of 96 well plate. The bottom chambers were filled with 120 μl of cell culture medium containing 10% FBS. Cells suspended in 70 μl serum free medium with DMSO as negative control or drugs were added to the upper part of each chamber followed by incubation at 37° C. with 5% CO2. After 4 h the medium was aspirated from the top of chambers and the bottom side of chambers washed with PBS. Those that have penetrated to the bottom side of the membrane were detached with 0.25% tryspin/EDTA during 3 min (37° C.) followed by inactivation of trypsine with soybean (Sigma Aldrich). […] Six replicates were performed for each treatment condition to predict the responder outcome variable and the luminescence signal which is corresponding to the number of live suspended cells was measured. Graph was plotted according to the readings obtained. […]

PANC-1 cells [3] = assay: Wound healing (scratching) assay for cell migration; type: cell-based, human; details: PANC-1, increasing concentrations, 10 h
Description: PANC-1 cells were plated in the chamber were already attached in 12 well plate and allowed to grow for 24 h. Then, a wound was made in the confluent monolayer by removing the chamber. Cells were exposed to increasing concentration of Pimozide (FIG. 6A) or L741 (FIG. 6B) and vehicle for 10 h. Wound gap closure was measured for each drug concentration by comparing the gap at time 0 h to the one at the time 10 h when the gap closed in negative control and normalized to untreated condition.
PANC-1 cells were seeded into the 35 mm-dish culture-silicon Insert frames from Ibidi where already attached to the 6 well culture plate. When 96-98% confluency was achieved, the insert frames were removed using sterile forceps to reach cell free gap. To create a reference point for subsequent measurements, three different part of the gap was marked on the underside of the plastic. Floating cells and cell debris were washed using PBS, relative culture medium was added to each wells and migration distance was photographed using a Zeiss Axiovert 24 light microscope at zero time in the marked areas. Afterward, the wells were treated by addition of DMSO as control and different increasing concentration of Pim and L741. Plates were then placed into the incubator and the cells were allowed to migrate until the time when the gap for the […] closed (t time). Images were taken from the marked areas again. This assay was performed employing various concentrations of drugs at which maximum 5% viability inhibition was observed after 10 h treatment.

PANC-1 cells [4] = assay: Transwell (Boyden chamber) migration assay, PANC-1; type: cell-based, human; details: PANC-1, Boyden chamber, increasing doses, 4 h

Question: Which results are given for O=c1[nH]c2ccccc2n1C1CCN(CCCC(c2ccc(F)cc2)c2ccc(F)cc2)CC1 [pimozide]?
Answer: cell growth [1]: reduced cell growth; tumor volume (MIAPaCa-2 xenograft): reduced tumor weight and volume; tumor weight (MIAPaCa-2 xenograft): reduced tumor weight; abundance of free cholesterol (Filipin staining) [2]: increased the abundance of free cholesterol; also recorded: enhanced glucose and cholesterol uptake; migrated cells (MIAPaCa-2 cells): significantly reduced migrated cells; also recorded: dose dependent inhibitory effect; tumor cell migration (wound gap closure) (PANC-1 cells [3]): tumor cell migration was affected; tumor cell migration (wound gap closure) (PANC-1 cells [3]; listed as Pimozide): dose dependent inhibitory effect; migrated cells (PANC-1 cells [4]): significantly reduced migrated cells; also recorded: Dose dependent inhibitory effect
